# Test results from ChEMBL document CHEMBL1201862, “PubChem BioAssay data set” (2004).
# The source made the active and inactive calls. Rule as the data show it, for most assays here: actives have a measured EC50 and inactives only a lower limit.
# Tests used:
# H9c2 = test: cells; assay type: functional, cell-based; conditions: Rattus norvegicus, H9c2, Myocardium;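 also: confirmatory concentration-response retest of ultra-high-throughput screening hits for modulation of myocardial damage; cell death induced by hydrogen peroxide oxidative stress; compound pretreatment for 60 min then peroxide exposure for 2 h; potency is for protecting the cells against peroxide damage rather than for killing them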
# [1] = C. albicans growth with fluconazole, confirmation, fluorescence, retest (AID 2467); assay type: functional, cell-based
# [2] = NIH-3T3 fibroblast cytotoxicity, dose response, cytotoxicity control, cell-based, fluorescence, Alamar Blue, secondary assay (AID 2327); assay type: functional;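 also: NIH-3T3 mouse fibroblasts cultured with fluconazole at 8 µg/mL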
# Streptokinase A = target: T1, Streptokinase A (Streptococcus pyogenes serotype M1, UniProt P10520); test: S. pyogenes streptokinase expression inhibitors, potency, dose response, plasminogen activation absorbance, OD405 (AID 1914); assay type: functional, Streptococcus pyogenes M1 GAS;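 also: secreted streptokinase activity via plasminogen activation per viability signal from cell pellet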
# T1 sequence (P10520 whole entry): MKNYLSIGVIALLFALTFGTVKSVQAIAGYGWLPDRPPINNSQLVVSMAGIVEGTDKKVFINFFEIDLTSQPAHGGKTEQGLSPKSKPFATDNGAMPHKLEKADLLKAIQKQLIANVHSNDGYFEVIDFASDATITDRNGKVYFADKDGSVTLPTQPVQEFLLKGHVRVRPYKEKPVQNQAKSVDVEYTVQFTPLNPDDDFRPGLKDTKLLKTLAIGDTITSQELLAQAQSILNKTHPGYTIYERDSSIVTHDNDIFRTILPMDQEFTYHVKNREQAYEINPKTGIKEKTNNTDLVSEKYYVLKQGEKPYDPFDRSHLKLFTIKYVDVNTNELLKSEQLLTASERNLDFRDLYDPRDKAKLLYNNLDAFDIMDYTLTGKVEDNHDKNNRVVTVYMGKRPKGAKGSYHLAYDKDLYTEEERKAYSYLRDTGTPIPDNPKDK
# [3] = target: T2, RNA-binding protein pos-1 (Caenorhabditis elegans, UniProt G5EF15); test: inhibitors of POS-1/mex-3 RNA binding, dose response, biochemical, fluorescence polarization (AID 1964);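 also: purified POS-1 fused to maltose binding protein made in E. coli; potency of compounds blocking POS-1 binding to fluorescent RNA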
# T2 sequence (G5EF15 whole entry): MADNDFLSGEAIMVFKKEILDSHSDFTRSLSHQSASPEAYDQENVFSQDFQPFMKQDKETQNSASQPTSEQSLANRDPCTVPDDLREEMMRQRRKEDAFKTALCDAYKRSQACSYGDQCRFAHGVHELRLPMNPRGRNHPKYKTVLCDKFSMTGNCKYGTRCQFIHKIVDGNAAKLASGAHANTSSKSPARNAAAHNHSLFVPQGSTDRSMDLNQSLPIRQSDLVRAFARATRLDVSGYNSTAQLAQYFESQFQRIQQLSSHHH
# [4] = test system: Streptococcus sp. 'group A'; test: growth inhibition of control SK(-) GAS strain, dose response, counter-screen for streptokinase expression inhibitor project, luminescence, kanamycin, BacTiterGlo, confirmation (AID 1900); assay type: functional, organism-based
# Streptococcus = test: Group A Streptococcus viability loss, dose response, counter-screen for streptokinase expression inhibitor project, luminescence, BacTiterGlo (AID 1915); assay type: functional, organism-based;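 also: potency for reduction of bacterial viability or growth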
# [5] = target: T3, Zinc finger protein mex-5 (Caenorhabditis elegans, UniProt Q9XUB2); test: MEX-5/TCR-2 RNA interaction inhibitors, dose response, biochemical, C. elegans, fluorescence polarization (AID 1960)
# T3 sequence (Q9XUB2 whole entry): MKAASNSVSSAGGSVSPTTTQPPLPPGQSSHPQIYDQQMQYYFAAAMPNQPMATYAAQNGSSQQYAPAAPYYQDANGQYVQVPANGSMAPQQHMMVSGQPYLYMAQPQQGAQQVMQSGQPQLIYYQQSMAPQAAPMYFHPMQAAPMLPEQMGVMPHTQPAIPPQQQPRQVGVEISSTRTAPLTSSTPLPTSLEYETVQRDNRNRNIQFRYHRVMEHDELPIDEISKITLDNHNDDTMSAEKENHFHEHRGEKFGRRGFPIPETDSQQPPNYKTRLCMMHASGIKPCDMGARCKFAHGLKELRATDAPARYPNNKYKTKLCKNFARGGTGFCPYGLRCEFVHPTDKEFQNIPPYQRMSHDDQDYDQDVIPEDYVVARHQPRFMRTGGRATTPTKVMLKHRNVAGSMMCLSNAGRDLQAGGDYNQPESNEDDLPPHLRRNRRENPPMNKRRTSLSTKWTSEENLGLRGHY
# [6] = target: T4, Corticotropin-releasing factor receptor 2/Corticotropin-releasing factor-binding protein (Homo sapiens, UniProt P24387+Q13324); test: Dose Response confirmation of uHTS hits for small molecule antagonists of the CRF-binding protein and CRF-R2 receptor complex.; assay type: functional; conditions: read-out: IC50_Mean
# T4 sequence (Q13324 whole entry): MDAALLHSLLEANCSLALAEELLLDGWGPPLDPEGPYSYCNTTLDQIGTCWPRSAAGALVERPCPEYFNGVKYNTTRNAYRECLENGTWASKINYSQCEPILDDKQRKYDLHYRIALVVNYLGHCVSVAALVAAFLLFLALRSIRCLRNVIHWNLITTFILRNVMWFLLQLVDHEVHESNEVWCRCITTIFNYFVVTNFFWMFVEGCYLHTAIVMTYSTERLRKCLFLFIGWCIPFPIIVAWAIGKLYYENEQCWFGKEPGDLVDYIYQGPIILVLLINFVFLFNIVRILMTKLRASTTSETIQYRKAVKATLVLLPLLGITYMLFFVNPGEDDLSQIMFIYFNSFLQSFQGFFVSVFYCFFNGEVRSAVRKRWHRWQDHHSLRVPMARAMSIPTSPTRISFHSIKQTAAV
# T4 sequence (P24387 whole entry): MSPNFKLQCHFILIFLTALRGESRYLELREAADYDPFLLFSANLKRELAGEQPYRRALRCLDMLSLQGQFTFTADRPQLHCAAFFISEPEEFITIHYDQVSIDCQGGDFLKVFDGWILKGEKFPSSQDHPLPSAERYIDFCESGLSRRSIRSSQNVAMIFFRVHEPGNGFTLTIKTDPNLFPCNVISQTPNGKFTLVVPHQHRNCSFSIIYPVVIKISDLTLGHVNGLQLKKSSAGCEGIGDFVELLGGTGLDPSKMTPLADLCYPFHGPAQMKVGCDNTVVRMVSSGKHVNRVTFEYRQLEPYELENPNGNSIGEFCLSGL
# [7] = target: T4, Corticotropin-releasing factor receptor 2/Corticotropin-releasing factor-binding protein; test: activators of CRF receptor 2 with binding protein – uHTS hits, confirmation (AID 602473); assay type: functional; conditions: read-out: EC50_Mean
# H4 = test: Luminescence Cell-Based Dose Response HTS to Identify Activators of 5'UTR Stem-Loop Driven Prion Protein mRNA Translation in H4 Neuroglioblastoma Cells. [Related pubchem assays: 1829 (Project Summary), 1814 (Primary HTS)]; assay type: functional; conditions: Homo sapiens
# [8] = Luminescence Cell-Based Dose Response HTS to Identify Activators of Luciferase Translation or Activity in H4 […] Cells. [Related pubchem assays: 1829 (Project Summary), 1814 (Primary HTS)]; assay type: functional
smiles,measurement,setting,value
O=C(COC(=O)Cn1[nH]c(=O)c2ccccc2c1=O)Nc1ncc(Cl)cc1Cl,IC50,H9c2,> 79 µM (inactive)
O=C1NCCN1CCNS(=O)(=O)c1cc(C(F)(F)F)cc(C(F)(F)F)c1,EC50,[1],> 38 µM (not active)
same,EC50,[2],> 150 µM (inactive)
COc1ccccc1Oc1c[nH]nc1-c1ccc(OCC(=O)NN)cc1O,EC50,Streptokinase A,> 150 µM (not active)
same,EC50,[3],> 300 µM (not active)
same,EC50,[4],> 150 µM (not active)
same,EC50,Streptococcus,> 150 µM (not active)
same,EC50,[5],120 µM (active)
CCn1c(SCC(=O)N2CCCCC2)nc2c(c1=O)SCC2,IC50,[6],> 47.1 µM (inactive)
same,EC50,[7],> 53 µM (inactive)
CCN(C[C@H]1N[C@@](Cc2ccccc2)(C(=O)OC)[C@H]2C(=O)N(C)C(=O)[C@@H]12)S(=O)(=O)c1ccc(OC)cc1,IC50,H9c2,7.53 µM (active)
Cc1ccc(C(=O)Oc2ccc(Cl)c3cccnc23)cc1[N+](=O)[O-],IC50,H9c2,> 79 µM (inactive)
CCO/C(O)=C1\C(C)=NC(C)=C(C(=O)OCCNC(=O)c2cccnc2)C1c1cccc([N+](=O)[O-])c1 (configuration not stated),IC50,H9c2,> 79 µM (inactive)
CN(CC(=O)Nc1cccc(F)c1)C(=O)Cc1nnc(O)c2ccccc12,IC50,H9c2,25.6 µM (active)
Cc1cccc(NC(=O)c2[nH]cnc2C(=O)NCCCCCCNC(=O)c2nc[nH]c2C(=O)Nc2cccc(C)c2)c1,IC50,H9c2,14.4 µM (active)
Cc1cc(NC(=O)CN2C(=O)NC(CC(C)C)C2=O)no1 (configuration not stated),IC50,[6],> 47.1 µM (inactive)
same,EC50,[7],> 53 µM (inactive)
COCCn1c(-c2ccccc2)cs/c1=N\c1cccnc1,IC50,[6],22.3 µM (active)
same,EC50,[7],> 53 µM (inactive)
O=C(ONC1=NCCCCC1)c1cccc([N+](=O)[O-])c1,EC50,[1],2.12 µM (active)
same,EC50,[2],> 150 µM (inactive)
COc1ccc2nc(O)c(CN(CC3CCCO3)S(=O)(=O)c3ccccc3F)cc2c1 (configuration not stated),IC50,H9c2,15.5 µM (active)
O=C(NCCN1CCOCC1)c1cnn2c(-c3ccccc3)cc(-c3ccccc3)nc12,IC50,H9c2,> 79 µM (inactive)
Cc1ccn(C(=O)c2ccc(NC(=O)C3CCCCC3)cc2)n1,IC50,[6],> 47.1 µM (inactive)
same,EC50,[7],> 53 µM (inactive)
C[C@]12CC[C@H]3[C@@H](CC[C@H]4C[C@@H](O)CC[C@@]43C)[C@@H]1C[C@@H](O)C2,IC50,H9c2,> 79 µM (inactive)
Nc1nc(CN2CCC(Cc3ccccc3)CC2)nc(Nc2ccccc2)n1,EC50,Streptokinase A,> 150 µM (not active)
same,EC50,[4],14.8 µM (active)
same,EC50,Streptococcus,> 150 µM (not active)
CSc1nc2cc(Cl)ccc2s1,IC50,[6],> 47.1 µM (inactive)
same,EC50,[7],> 53 µM (inactive)
O=C(Nc1scc(-c2ccc(Br)cc2)c1C(=O)O)c1ccccc1F,EC50,Streptokinase A,9.9 µM (active)
same,EC50,[4],2.83 µM (active)
same,EC50,Streptococcus,11 µM (active)
Cc1nn(C)cc1C(C(=O)NC1CCCCC1)N(C(=O)Cc1cccs1)c1ccc(Cl)cc1 (configuration not stated),IC50,H9c2,15.2 µM (active)
same,EC50,[7],12 µM (active)
C=C(C)CNC(=S)N/N=C1\CCCCc2ccccc21,EC50,[1],6.24 µM (active)
same,EC50,[2],62.5 µM (active)
CCCCNC(=O)c1cn(-c2ccc(OCC)cc2)c(=O)c2cc(OC)c(OC)cc12,IC50,H9c2,15.3 µM (active)
CC(C)(C)NS(=O)(=O)c1ccc(NS(=O)(=O)Cc2ccccc2)cc1,EC50,Streptokinase A,> 150 µM (not active)
same,EC50,[4],> 150 µM (not active)
same,EC50,Streptococcus,> 150 µM (not active)
C=C(C)CSc1nc2c(cc1C#N)CCC2,IC50,[6],> 47.1 µM (inactive)
same,EC50,[7],> 53 µM (inactive)
O=C(Nc1ccc(F)cc1)c1nc2c(nnn2Cc2cccc3ccccc23)c(=O)[nH]1,EC50,Streptokinase A,> 150 µM (not active)
COC(=O)c1ccc(NC(=O)COC(=O)CSc2nc(C)cc(C)n2)cc1,IC50,[6],> 47.1 µM (inactive)
same,EC50,[7],> 53 µM (inactive)
CCCC(=O)NCCc1ccc(F)cc1,EC50,Streptokinase A,> 150 µM (not active)
same,EC50,[4],> 150 µM (not active)
same,EC50,Streptococcus,> 150 µM (not active)
COc1ccc(C(C(=O)NC2CCCCC2)N(Cc2cccs2)C(=O)Cc2c[nH]c3ccccc23)cc1OC (configuration not stated),IC50,[6],> 47.1 µM (inactive)
same,IC50,H9c2,> 79 µM (inactive)
same,EC50,[7],> 53 µM (inactive)
CC(C)c1ccc(/C=N/NC(=O)c2cc(-c3cccc([N+](=O)[O-])c3)[nH]n2)cc1,IC50,[6],> 47.1 µM (inactive)
same,EC50,[7],> 53 µM (inactive)
Cc1c(C#N)c(N)nc2c3c(sc12)NC(=O)CC3c1ccccc1 (configuration not stated),IC50,H9c2,32.6 µM (inactive)
Cc1ccsc1/C=N/NS(=O)(=O)c1ccc([N+](=O)[O-])cc1,EC50,[1],1.81 µM (active)
same,EC50,[2],> 150 µM (inactive)
O=C(NNC(=O)c1cc2ccccc2cc1O)Nc1ccccc1F,EC50,[1],> 38 µM (not active)
same,EC50,[2],> 160 µM (inactive)
CC(C)C/C=C1\CCc2c([nH]c3ccccc23)C1=O,EC50,H4,45.4 µM (active)
same,EC50,[8],27.8 µM (active)
CN(/C(=N/S(=O)(=O)c1cccs1)c1ccccc1)c1ccc(O)cc1,EC50,[1],> 38 µM (not active)
same,EC50,[2],> 150 µM (inactive)
O=C(COc1ccc(Cl)cc1Cl)Nc1ccccc1NS(=O)(=O)c1cccs1,IC50,[6],> 47.1 µM (inactive)
same,EC50,[7],33.1 µM (active)
O[C@@H]1CCCN2CCc3c([nH]c4ccccc34)[C@H]12,EC50,Streptokinase A,> 150 µM (not active)
same,EC50,[4],> 150 µM (not active)
same,EC50,Streptococcus,> 150 µM (not active)
Cc1ccc(C(C)C)cc1OCC(=O)Nc1ccccc1N1CCCC1,EC50,Streptokinase A,14.1 µM (active)
same,EC50,Streptococcus,> 150 µM (not active)
COc1cc(/C=C2\SC(Nc3cccnc3)=NC2=O)cc(OC)c1OC,EC50,Streptokinase A,> 150 µM (not active)
same,EC50,[4],36.8 µM (active)
same,EC50,Streptococcus,68.5 µM (active)
COc1ccc(N/C=C(\C#N)c2nc3ccccc3n2C)c(OC)c1,IC50,H9c2,> 79 µM (inactive)
CC1CCN(C(=O)C2CCN(S(=O)(=O)c3cccnc3)CC2)CC1,IC50,[6],> 47.1 µM (inactive)
same,EC50,[7],> 53 µM (inactive)
